The values below come from US20130123222A1, “Synergistic Anti-Cancer Activity of SR16388 with Anti-Mitotic Drugs” (SRI INTERNATIONAL, INC., priority 2011, published 2013).

One assay relates to HT29. Description: 11×7 synergism hit rate. The class given is cell-based. The settings on record: Colon Cancer HT29, combination with SR16388. An excerpt:
(§1) SR16388 was synthesized in house.
(§2) Within the same type of cancer cells, some cell lines have more synergistic hits than others. Melanoma and breast cancer cell lines had the highest hit rate.

Another assay deals with K562. Description: 11×7 synergism hit rate. The class given is cell-based. Particulars: Leukemia K562, combination with SR16388.
Source text: as §1, §2

For another assay, the system named is SKMEL2. Description: 11×7 synergism hit rate. The class given is cell-based. The settings on record: Melanoma SKMEL2, combination with SR16388.
Source text: as §1, §2

For the next assay, the system named is HCC2998. Description: 11×7 synergism hit rate. In kind it is cell-based. Particulars: Colon Cancer HCC2998, combination with SR16388.
Source text: as §1, §2

The subject of another assay is COLO205. Briefly: 11×7 synergism hit rate. In kind it is cell-based. Particulars: Colon Cancer COLO205, combination with SR16388.
Source text: as §1, §2

The test system of the next assay is UACC62. Description: 11×7 synergism hit rate. In kind it is cell-based. The settings on record: Melanoma UACC62, combination with SR16388.
Source text: as §1, §2

In another assay the test system is LOXIMVI. Description: 11×7 synergism hit rate. The class given is cell-based. The settings on record: Melanoma LOXIMVI, combination with SR16388.
Source text: as §1, §2

The subject of another assay is NCIH522. Briefly: 11×7 synergism hit rate. The class given is cell-based. The settings on record: NSCLC NCIH522, combination with SR16388.
Source text: as §1, §2

In a further assay the test system is NCIH23. Description: 11×7 synergism hit rate. Particulars: NSCLC NCIH23, combination with SR16388. In kind it is cell-based.
Source text: as §1, §2

The next assay has as its system SW620. Briefly: 11×7 synergism hit rate. In kind it is cell-based. Particulars: Colon Cancer SW620, combination with SR16388.
Source text: as §1, §2

Another assay relates to CAKI1. Briefly: 11×7 synergism hit rate. Particulars: Renal Cancer CAKI1, combination with SR16388. The class given is cell-based.
Source text: as §1, §2

A further assay concerns SNB19. Briefly: 11×7 synergism hit rate. The settings on record: CNS Cancer SNB19, combination with SR16388. The class given is cell-based.
Source text: as §1, §2

Another assay relates to IGROV1. Description: 11×7 synergism hit rate. The class given is cell-based. The settings on record: Ovarian Cancer IGROV1, combination with SR16388.
Source text: as §1, §2

The next assay concerns SKOV3. Briefly: 11×7 synergism hit rate. The class given is cell-based. Particulars: Ovarian Cancer SKOV3, combination with SR16388.
Source text: as §1, §2

For another assay, the system named is T47D. Description: 11×7 synergism hit rate. In kind it is cell-based. Particulars: Breast Cancer T47D, combination with SR16388.
Source text: as §1, §2

The test system of another assay is OVCAR8. Description: 11×7 synergism hit rate. In kind it is cell-based. Particulars: Ovarian Cancer OVCAR8, combination with SR16388.
Source text: as §1, §2

The subject of a further assay is EKVX. Briefly: 11×7 synergism hit rate. The class given is cell-based. Particulars: NSCLC EKVX, combination with SR16388.
Source text: as §1, §2

The next assay deals with SKMEL5. Briefly: 11×7 synergism hit rate. Particulars: Melanoma SKMEL5, combination with SR16388. In kind it is cell-based.
Source text: as §1, §2

The next assay has as its system MDAMB468. Briefly: 11×7 synergism hit rate. The class given is cell-based. The settings on record: Breast Cancer MDAMB468, combination with SR16388.
Source text: as §1, §2

The test system of assay [1] is panel of 48 to 60 cell lines. Description: 5×4 combination screen with SR16388, CellTiter-Glo viability; synergy by pattern recognition. Particulars: for no effect (number of cell lines) / synergy (number of cell lines) / % synergy: in combination with SR16388, 5x4-T1; for no effect (number of cell lines) / synergy (number of cell lines): pattern recognition, of 60 cell lines incl. no data; for % synergy: share of cell lines with data. (In general: ATP-based viability assays read luminescence as a measure of living cells.)
Protocol: Cells were treated with compounds alone or in combination for three days and CellTiter-Glo® Luminescent Cell Viability Assay (Promega Corp.) was used as the endpoint to measure cell viability.
Cells were cultured in DMEM with 10% fetal bovine serum and used between passage 2 and passage 20. Cells were harvested on Day-1 (FIG. 1A) and re-supspended to the corresponding seeding density and seeded with Wellmate (ThermoFisher) to 384 plates (BD or GBO).
40 mM Compound stocks in 100% DMSO were made. Master plates were made with Janus (PerkinElmer), then further diluted and added to the cell plates with Matrix Platemate (Thermo) on Day 0.
CellTiter-Glo® Luminescent Cell Viability Assay (Promega Corp.) was used to measure ATP as an indicator of viable cells on Day 3 using Envision (PerkinElmer) and back up reader Analyst HT (MDS) and Gen5 (BioTek).
Single point, 5×4 checkque board platemap was used in the initial screening.
Relative Luminescent Units (RLU) were plotted against corresponding drug concentrations and fitted with standard four parameter sigmoidal curve with custom coded R program or Calcusyn (Biosoft, Cambridge, UK).

The subject of another assay is A549. Description: 11×7 synergism hit rate. In kind it is cell-based. The settings on record: NSCLC A549, combination with SR16388.
Source text: as §1

The subject of assay [2] is panel of 48 to 60 cell lines. Description: 5×4 combination screen with SR16388; synergism hit rate by algorithm (Z score). The class given is cell-based. The settings on record: in combination with SR16388, all 20 (5×4) dose combinations. How it is done:
as §1
5) A “combination score” was assigned to each specific combination (Ca1b1x): C=1 if Za1b1x>3*SD and C=0 if Za1b1x≦3*SD score);
6) Hit rate of each combination was calculated by comparing the sum of the combination scores of all 20 (5×4) dose combinations with all cell lines to the total number of data points of that specific combination;
7) Hit rate were ranked from high to low to identify potential synergistic combinations.

`CC(=O)O[C@H]1C(=O)[C@@]2(C)[C@H]([C@H](OC(=O)c3ccccc3)[C@]3(O)C[C@H](OC(=O)[C@H](O)[C@@H](NC(=O)c4ccccc4)c4ccccc4)C(C)=C1C3(C)C)[C@]1(OC(C)=O)CO[C@@H]1C[C@@H]2O` [Paclitaxel]: the “% Hit rate” value worked out at 22% with HT29; 12% with K562; 29% in the assay with SKMEL2; 12% in the assay on HCC2998; 17% in the assay on COLO205; 25% in the assay with UACC62. In addition, the “% Hit rate” value in the assay with LOXIMVI is 13%; in the assay with NCIH522, 10%; with NCIH23, 4%; in the assay on SW620, 9%; in the assay with CAKI1, 22%; in the assay with SNB19, 27%. In addition, the “% Hit rate” value in the assay on IGROV1 was determined as 18%; in the assay with SKOV3, 18%; in the assay on T47D, 19%; in the assay with OVCAR8, 13%; in the assay on EKVX, 0%; in the assay on SKMEL5, 12%. Besides, the “% Hit rate” value in the assay on MDAMB468 is 8%. In addition, the “interaction with SR16388 in the screen of 30 cancer therapeutic agents” value (“interaction with SR16388 in the screen” below) in [1] was “Synergistic anti-proliferation”. In addition, the “no effect (number of cell lines)” value in [1] is 18. Further, the “synergy (number of cell lines)” value in assay [1] is given as 40. Moreover, the “% synergy” value in assay [1] amounted to 69%.

In the case of `CC[C@]1(O)C[C@@H]2CN(CCc3c([nH]c4ccccc34)[C@@](C(=O)OC)(c3cc4c(cc3OC)N(C)[C@H]3[C@@](O)(C(=O)OC)[C@H](OC(C)=O)[C@]5(CC)C=CCN6CC[C@]43[C@@H]65)C2)C1` [Vinblastine], the “% Hit rate” value in the assay with HT29 worked out at 8%; with K562, 3%; in the assay with SKMEL2, 3%; with HCC2998, 6%; in the assay with COLO205 it was 12%; with UACC62 it was 10%. The “% Hit rate” value is given as 1% in the assay with LOXIMVI; 4% with NCIH522; 4% in the assay on NCIH23; 8% in the assay with SW620; 12% in the assay with CAKI1; 12% in the assay on SNB19. Moreover, the “% Hit rate” value is given as 0% with IGROV1; 8% with SKOV3; 9% in the assay with T47D; 5% in the assay on OVCAR8; 1% in the assay with EKVX; 5% with SKMEL5. Further, the “% Hit rate” value in the assay on MDAMB468 is 3%; in the assay with A549 it was 0%.

Turning to `CC[C@]1(O)C[C@H]2CN(CCc3c([nH]c4ccccc34)[C@@](C(=O)OC)(c3cc4c(cc3OC)N(C=O)[C@H]3[C@@](O)(C(=O)OC)[C@H](OC(C)=O)[C@]5(CC)C=CCN6CC[C@]43[C@@H]65)C2)C1` [Vincristine], the “% Hit rate” value came to 10% with HT29; 8% with K562; 25% with SKMEL2; 4% in the assay on HCC2998; 14% in the assay on COLO205; 23% in the assay with UACC62. Further, the “% Hit rate” value in the assay with LOXIMVI is on record as 5%; with NCIH522, 10%; with NCIH23 it was 4%; in the assay on SW620, 5%; in the assay with CAKI1, 13%; in the assay with SNB19, 27%. Moreover, the “% Hit rate” value in the assay with IGROV1 amounted to 8%; in the assay on SKOV3, 19%; in the assay with T47D it was 16%; in the assay on OVCAR8, 10%; in the assay with EKVX, 1%; with SKMEL5 it was 14%. In addition, the results for the “% Hit rate” value in the assay with MDAMB468 and in the assay on A549 were 5% and 10%, respectively. In [1], the “interaction with SR16388 in the screen” value is recorded as “Synergistic anti-proliferation”. In assay [1], the “no effect (number of cell lines)” value is given as 19. In assay [1], the “synergy (number of cell lines)” value turned out to be 23. Further, in assay [1], the “% synergy” value worked out at 55%. For the same compound, the “% hit/combo” value in [2] was found to be 2.08%.

With `CC(=O)O[C@@]12CO[C@@H]1C[C@H](O)[C@@]1(C)C(=O)[C@H](O)C3=C(C)[C@@H](OC(=O)[C@H](O)[C@@H](NC(=O)OC(C)(C)C)c4ccccc4)C[C@@](O)([C@@H](OC(=O)c4ccccc4)[C@H]21)C3(C)C` [Docetaxel], the “% Hit rate” value in the assay with HT29 is 21%; with K562 it was 0%; with SKMEL2 it was 12%; in the assay on HCC2998 it was 6%; in the assay with COLO205 it was 35%; in the assay with UACC62 it was 16%. In addition, the “% Hit rate” value in the assay on LOXIMVI was found to be 8%; in the assay on NCIH522, 8%; in the assay on NCIH23, 5%; with SW620, 8%; in the assay on CAKI1, 16%; in the assay with SNB19 it was 18%. For the same compound, the “% Hit rate” value in the assay with IGROV1 was 3%; in the assay on SKOV3, 12%; with T47D it was 19%; in the assay on OVCAR8, 6%; in the assay on EKVX it was 0%; in the assay on SKMEL5, 10%. In addition, the “% Hit rate” value in the assay with MDAMB468 came to 6%; with A549 it was 4%. Further, the “interaction with SR16388 in the screen” value in [1] is “Synergistic anti-proliferation”. The “no effect (number of cell lines)” value in assay [1] is 51. The “synergy (number of cell lines)” value in [1] came out at 7. Also, the “% synergy” value in [1] was 12%. In [2], the “% hit/combo” value is 0.58%.
